{"source": "patent US20060025463A1", "about": "“Enoximone sulfoxide enantiomers and their use in the treatment of PDE-III mediated diseases” (priority 2004, published 2006)", "key": {"[1]": {"test_system": "trabeculae from the right ventricular free wall of explanted human hearts", "assay": "Tension study: peak contractile force of isolated human right ventricular trabeculae in a muscle bath", "conditions": "37° C., 1.0 Hz field stimulation, increasing concentrations", "experimental": "Explanted human hearts were obtained from transplant recipients (n=7) and from nonfailing donor hearts (n=1). After excision, hearts were placed immediately into ice cold Tyrode's solution and aerated with 95% O2 and 5% CO2. Trabeculae between 1-3 mm in width and 7-10 mm in length were excised from the right ventricular free wall. Subsequently trabeculae were mounted in a multi-chamber muscle bath in oxygenated Tyrode's solution at 37° C. The trabeculae were placed under 1 gram of resting tension and a field stimulation of 1.0 Hz. […] Peak contractile forces were recorded at 10 minute intervals for a total of 1½ hours. Following experimentation, trabeculae were frozen in liquid N2."}, "[2]": {"biological_target": "T1, PDE-III isolated from human platelets (Homo sapiens, UniProt Q14432)", "T1 construct": "PDE-III isolated from human platelets; from tissue; host or cells: human platelets", "T1 sequence (Q14432 whole entry)": "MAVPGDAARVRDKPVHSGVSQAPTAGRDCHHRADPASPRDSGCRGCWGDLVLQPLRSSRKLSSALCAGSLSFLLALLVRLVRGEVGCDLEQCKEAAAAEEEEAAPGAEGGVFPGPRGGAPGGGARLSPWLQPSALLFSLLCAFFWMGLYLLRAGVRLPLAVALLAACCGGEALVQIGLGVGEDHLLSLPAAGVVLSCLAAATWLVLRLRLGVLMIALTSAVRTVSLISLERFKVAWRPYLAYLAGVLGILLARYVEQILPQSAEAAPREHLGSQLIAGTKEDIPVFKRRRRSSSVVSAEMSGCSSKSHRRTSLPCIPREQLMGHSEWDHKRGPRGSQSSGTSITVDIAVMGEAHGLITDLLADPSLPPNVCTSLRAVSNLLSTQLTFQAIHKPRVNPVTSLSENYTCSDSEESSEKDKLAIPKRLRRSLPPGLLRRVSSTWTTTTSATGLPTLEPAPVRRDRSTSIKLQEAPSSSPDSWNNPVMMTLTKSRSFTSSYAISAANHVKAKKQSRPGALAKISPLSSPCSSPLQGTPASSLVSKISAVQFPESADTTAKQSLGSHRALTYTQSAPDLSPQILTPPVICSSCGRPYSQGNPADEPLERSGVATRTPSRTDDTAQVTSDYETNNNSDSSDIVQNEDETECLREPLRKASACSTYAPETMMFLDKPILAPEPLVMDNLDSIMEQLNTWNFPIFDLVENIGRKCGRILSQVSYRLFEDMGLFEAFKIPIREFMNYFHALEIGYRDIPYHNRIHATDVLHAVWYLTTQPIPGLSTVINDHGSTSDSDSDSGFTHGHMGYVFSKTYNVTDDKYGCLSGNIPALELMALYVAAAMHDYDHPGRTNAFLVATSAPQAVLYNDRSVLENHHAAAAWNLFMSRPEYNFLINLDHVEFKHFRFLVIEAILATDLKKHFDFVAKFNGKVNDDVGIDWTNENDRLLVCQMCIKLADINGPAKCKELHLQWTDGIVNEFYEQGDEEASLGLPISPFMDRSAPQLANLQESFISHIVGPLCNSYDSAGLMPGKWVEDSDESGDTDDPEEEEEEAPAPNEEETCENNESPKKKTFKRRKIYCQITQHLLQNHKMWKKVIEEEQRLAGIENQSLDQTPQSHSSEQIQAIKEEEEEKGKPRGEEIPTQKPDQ", "assay": "PDE-III inhibition assay, [3H]cAMP substrate, [3H]Adenosine quantified", "assay_type": "biochemical", "conditions": "triplicate at three concentrations over log scale, semi-quantitative", "experimental": "Enoximone Sulfoxide enantiomer was tested for its ability to inhibit the action of PDE-III isolated from human platelets. The substrate was [^3H]cAMP+cAMP, which is converted by PDE-III to [^3H]Adenosine and then [^3H]Adenosine can be quantified."}, "[3]": {"conditions": "cited from earlier work"}, "[4]": {"conditions": "oral, cited from earlier work"}, "PDE-III": {"test_system": "PDE-III", "conditions": "cited from earlier work"}, "[5]": {"test_system": "men who suffer from ED of psychogenic or organic etiology", "conditions": "clinical studies; cited from earlier work"}}, "note": "Where two headings read alike, the source gives them in different places."}
{"smiles": "Cc1[nH]c(=O)[nH]c1C(=O)c1ccc([S+](C)[O-])cc1.O", "note": "(single isomer, unassigned) [(R)-(+)-enantiomer, 1,3-Dihydro-4-methyl-5-[(4-methylsulfinyl)-benzoyl]-2H-imidazol-2-one hydrate]", "values": [{"measurement": "peak contractile force (net, T=0 value subtracted)", "setting": "[1]", "value": "175 mg of tension"}]}
{"smiles": "Cc1[nH]c(=O)[nH]c1C(=O)c1ccc([S@+](C)[O-])cc1", "note": "[(S)-(−)-enantiomer, 1,3-Dihydro-4-methyl-5-[(4-methylsulfinyl)-benzoyl]-2H-imidazol-2-one hydrate]", "values": [{"measurement": "IC50", "setting": "[2]", "value": 147, "unit": "µM"}, {"measurement": "peak contractile force (net, T=0 value subtracted)", "setting": "[1]", "value": "550 mg of tension"}]}
{"smiles": "CSc1ccc(C(=O)c2[nH]c(=O)[nH]c2C)cc1", "note": "[Enoximone, 1,3-Dihydro-4-methyl-5-[4-(methylthio)benzoyl]-2H-imidazol-2-one]", "values": [{"measurement": "mean clearance", "setting": "[3]; patients with cardiac failure", "value": "about 10 ml/min/kg"}, {"measurement": "mean half-life", "setting": "[3]; patients with cardiac failure", "value": 6, "unit": "h"}, {"measurement": "Bioavailability", "setting": "[3]; single oral dose of 3 mg/kg", "value": "about 55%"}, {"measurement": "average steady-state plasma concentration", "setting": "[4]; 50 mg every 8 hours", "value": "115 ± 40", "unit": "ng/mL"}, {"measurement": "average steady-state plasma concentration", "setting": "[4]; 100 mg every 8 hours", "value": "190 ± 78", "unit": "ng/mL"}, {"measurement": "peak contractile force (net, T=0 value subtracted)", "setting": "[1]", "value": "575 mg of tension"}]}
{"smiles": "CC(C)NCC(O)c1ccc(O)c(O)c1", "note": "(stereo not drawn) [Isoproterenol]", "values": [{"measurement": "peak contractile force (net, T=0 value subtracted)", "setting": "[1]", "value": "> 1000 mg of tension"}]}
{"smiles": "CCCc1nn(C)c2c(=O)[nH]c(-c3cc(S(=O)(=O)N4CCN(C)CC4)ccc3OCC)nc12", "note": "[sildenafil, 5-[2-ethoxy-5-(4-methylpiperazin-1-ylsulphonyl)phenyl]-1-methyl-3-n-propyl-6,7-dihydro-1H-pyrazolo[4,3-d]pyrimidin-7-one]", "values": [{"measurement": "inhibition of PDE-III", "setting": "PDE-III", "value": "negligible inhibition"}, {"measurement": "men with improved sexual function", "setting": "[5]", "value": "about 70%"}]}
